PMC2792877 (Biochemistry, 2008)

Target: pa-FPR (Pseudomonas aeruginosa, UniProt Q9HYK7)
Assay: 1H-15N HSQC NMR titration, […] fit
Assay type: binding

Chain of pa-FPR (Q9HYK7 whole entry): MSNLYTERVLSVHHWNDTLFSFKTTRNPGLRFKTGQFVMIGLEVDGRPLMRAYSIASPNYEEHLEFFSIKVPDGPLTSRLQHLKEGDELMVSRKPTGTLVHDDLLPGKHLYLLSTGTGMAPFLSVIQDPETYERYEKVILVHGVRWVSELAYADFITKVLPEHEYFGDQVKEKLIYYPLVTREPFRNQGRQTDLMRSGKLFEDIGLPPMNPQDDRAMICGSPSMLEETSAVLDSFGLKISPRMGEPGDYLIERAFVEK

NC(=O)c1ccc[n+]([C@@H]2O[C@H](COP(=O)(O)OP(=O)(O)OC[C@H]3O[C@@H](n4cnc5c(N)ncnc54)[C@H](OP(=O)(O)O)[C@@H]3O)[C@@H](O)[C@H]2O)c1 [NADP^+]
Kd: 24 µM
